The species entered for one series is Bos taurus. Description: Kinetic constant (Vmax) against Adenosine Aminohydrolase was determined from calf intestinal mucosa. It is filed as ADME. The following applies: cattle, in vitro.
The subject of series [1] is adenosine aminohydrolase (adenosine deaminase). The series is described as follows: Kinetic Constant (Km) against Adenosine Aminohydrolase was determined from calf intestinal mucosa. The series is classed as ADME, Bos taurus. The conditions noted are these: cattle.
A further series deals with T1, Adenosine deaminase (Bos taurus, UniProt P56658).
T1 sequence (P56658 whole entry): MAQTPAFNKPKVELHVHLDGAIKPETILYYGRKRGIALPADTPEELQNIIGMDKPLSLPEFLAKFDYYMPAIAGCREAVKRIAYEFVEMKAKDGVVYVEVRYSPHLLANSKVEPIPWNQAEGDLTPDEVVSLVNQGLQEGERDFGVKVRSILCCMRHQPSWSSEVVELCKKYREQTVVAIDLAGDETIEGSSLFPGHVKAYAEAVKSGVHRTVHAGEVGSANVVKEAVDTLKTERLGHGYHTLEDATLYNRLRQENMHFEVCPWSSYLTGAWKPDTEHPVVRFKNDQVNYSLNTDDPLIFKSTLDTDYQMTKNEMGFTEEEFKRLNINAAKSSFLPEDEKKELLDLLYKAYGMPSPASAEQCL
The series is described as follows: Inhibition constant against Adenosine deaminase was determined from calf intestinal mucosa.

The Vmax is the rate approached at saturating substrate. As a reminder, the Km is the concentration of substrate that gives half-maximal velocity. A word on the Ki: it is a dissociation constant, usually derived from enzyme kinetics or from competition with a known ligand. In the case of `CC(O)[C@H](C=O)O[C@@H](C=O)n1cnc2c(N)ncnc21` (stereo partly drawn), the maximum rate (Vmax) in the series filed under Bos taurus turned out to be 0.41 µmol/min/mg. Also, the Michaelis constant (Km) in series [1] came out at 140 µM. The molecule further returned an inhibition constant (Ki) at Adenosine deaminase of 370 µM.
Consider `C=C[C@@H](C=O)O[C@@H](C=O)n1cnc2c(N)ncnc21`, for which the inhibitory constant (Ki) at Adenosine deaminase amounted to 50 µM.
`C=C[C@H](C=O)O[C@H](C=O)n1cnc2c(N)ncnc21`: the inhibitory constant (Ki) on Adenosine deaminase came out at 7 µM. Compared with the last molecule, the Ki is about 7.1-fold lower.
On to `CC(O)[C@@H](C=O)O[C@@H](C=O)n1cnc2c(N)ncnc21` (stereo partly drawn), for which the Vmax in the series listed under Bos taurus amounted to 0.46 µmol/min/mg. Moreover, in series [1], the Km was found to be 350 µM. This molecule had a Ki on Adenosine deaminase of 430 µM.

Values taken from ChEMBL document CHEMBL1121522, “Binding specificities of adenosine aminohydrolase from calf intestinal mucosa with dialdehydes derived from hexofuranosyladenine nucleosides” (J Med Chem, 1980).
